Test results as given in PubChem BioAssay (NCI).
“And” between values parts separate entries of the source, which are not always exact repeats. Identical values can stand only once.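 48-hour exposure; five concentrations; linearly interpolated endpoints. At the GI50, growth is halved. TGI: concentration producing complete growth inhibition.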

Tests used:
Assay in all cases: DTP human tumour cell line panel, 48 h
HS 578T breast = system: HS 578T breast
IGROV1 ovarian = system: IGROV1 ovarian
HT29 colon = system: HT29 colon
HOP-92 NSCLC = system: HOP-92 NSCLC
NCI-H460 lung = system: NCI-H460 lung
CCRF-CEM leukemia = system: CCRF-CEM leukemia
OVCAR-5 ovarian = system: OVCAR-5 ovarian
RPMI-8226 leukemia = system: RPMI-8226 leukemia
MCF7 breast = system: MCF7 breast
EKVX NSCLC = system: EKVX NSCLC

Structure (SMILES) | GI50 (HS 578T breast) [µM] | TGI (HS 578T breast) [µM] | GI50 (IGROV1 ovarian) [µM] | TGI (IGROV1 ovarian) [µM] | GI50 (HT29 colon) [µM] | TGI (HT29 colon) [µM] | GI50 (HOP-92 NSCLC) [µM] | TGI (HOP-92 NSCLC) [µM] | GI50 (NCI-H460 lung) [µM] | TGI (NCI-H460 lung) [µM] | GI50 (CCRF-CEM leukemia) [µM] | TGI (CCRF-CEM leukemia) [µM] | GI50 (OVCAR-5 ovarian) [µM] | TGI (OVCAR-5 ovarian) [µM] | GI50 (RPMI-8226 leukemia) [µM] | TGI (RPMI-8226 leukemia) | GI50 (MCF7 breast) [µM] | TGI (MCF7 breast) [µM] | GI50 (EKVX NSCLC) [µM] | TGI (EKVX NSCLC) [µM]
C[C@@H](N)C1CCC(C(=O)Nc2ccncc2)CC1 (stereo not given in full) | 26.4 | > 100 | 81.6 | > 100 | > 100 | > 100 | 0.855 | > 100 | > 100 | > 100 | 51.2 | > 100 | > 100 | > 100 | > 100 | > 100 µM | > 100 | > 100 | 15 | > 100
Fc1ccc(-c2nn3c(CNc4ccccc4)nnc3s2)cc1 | 49.7 | > 100 | 49.3 | > 100 | 39.2 | > 100 | 17.5 | > 100 | 52.3 | > 100 | 36.2 | > 100 | 30.2 | > 100 | 6.99 | > 100 µM | 60.2 | > 100 | 27.8 | > 100
C=CC(=O)N1C/C(=C\c2ccccc2)C(=O)/C(=C/c2ccccc2)C1 | 2.22 | 14.8 | – | 4.2 | 0.528 | 2.87 | – | 8.64 | – | 4.47 | 0.927 | 3.55 | – | 5.72 | 0.17 | 0.871 µM and 1.08 µM | 0.395 | 2.06 | – | 9.42
N=C(N)/N=C(\N)c1c(-c2cc(O)ccc2O)nc2sccn12 | > 100 | > 100 | 22.5 | 44.1 | 36.5 | > 100 | 18.3 | 55.3 | > 100 | > 100 | 10.3 | 33.7 | 18.3 | 33.1 | 21.9 | 49.5 µM | 37.8 | > 100 | 98.6 | > 100
O=C(CSc1nc2ccccc2nc1-c1ccccc1)Nc1ccc(Cl)cc1 | 16.1 | 70 | 46.4 | > 100 | 25.1 | > 100 | 15.4 | 63.5 | 11.8 | 36.8 | > 100 | > 100 | > 100 | > 100 | 92.3 | > 100 µM | 44.3 | > 100 | 49.5 | > 100
